# “Also recorded” adds a separate entry of the source. Read-outs that look alike come from different tables or passages of the source.
# How the values were obtained:
# [1] = humans, cited from earlier work
# FAAH [2] = biological target: T1, FAAH (Mus musculus, UniProt O08914); test: Competitive CATCH: parental PF7845 followed by PF7845-yne probe; type: in vivo
# T1 construct: from tissue; host or cells: mouse brain (C57BL6J wild type)
# T1 sequence (O08914 1-579): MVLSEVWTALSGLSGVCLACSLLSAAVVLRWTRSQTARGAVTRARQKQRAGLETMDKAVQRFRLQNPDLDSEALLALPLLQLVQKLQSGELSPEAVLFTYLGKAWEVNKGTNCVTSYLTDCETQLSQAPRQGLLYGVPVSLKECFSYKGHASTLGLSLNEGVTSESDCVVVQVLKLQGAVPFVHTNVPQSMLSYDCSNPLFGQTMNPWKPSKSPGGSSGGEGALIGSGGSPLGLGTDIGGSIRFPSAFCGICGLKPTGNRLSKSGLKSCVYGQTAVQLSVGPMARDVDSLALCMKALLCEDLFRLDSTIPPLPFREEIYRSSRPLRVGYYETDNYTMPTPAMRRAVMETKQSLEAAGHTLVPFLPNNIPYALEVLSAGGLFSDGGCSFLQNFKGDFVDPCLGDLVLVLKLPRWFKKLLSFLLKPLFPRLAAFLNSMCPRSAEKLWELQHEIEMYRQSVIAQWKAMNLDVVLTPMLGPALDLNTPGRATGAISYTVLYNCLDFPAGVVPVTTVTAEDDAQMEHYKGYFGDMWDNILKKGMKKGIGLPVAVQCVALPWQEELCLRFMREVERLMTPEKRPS
# Excerpt: After establishing CATCH's specificity, scalability, compatibility, and resolution, finally, the inventors tested if CATCH can be used to quantitatively resolve dose-dependent target engagement after in vivo drug administration. […] In this competitive CATCH approach, animals are first treated with a dose range of the parental drugs, followed by a single high dose of the alkyne probes. The dose-dependent target engagement by the parental drug can be recorded based on the competitive blockade of signal in an anatomically specific manner (FIG. 8, A).
# The inventors treated mice with 0.01-1 mg/kg of parental PF7845 followed by 1 mg/kg PF7845-yne probe to readout the dose-dependent brain targets of PF7845 by competitive CATCH. […] Conversely, the inventors adopted a direct approach to visualize dose-dependent alkyne drug PK properties (FIG. 8, C).
# Sample collection: Inhibitors were administered to mice in a vehicle of 10% DMSO, 2% Tween-80 in saline for intraperitoneal (i.p.) injections. After drug injection at designated dose and time, mice were heavily anesthetized with isoflurane and then transcardially perfused with ice cold PBS followed by ice cold 4% PFA in PBS with sucrose. Mouse brains or other peripheral tissues were then dissected out and post fixed in 4% PFA overnight at 4° C. Tissues were washed with PBS, embedded in 2% agarose and sectioned as 100-micron or 500-micron tissue sections by vibratome (Leica VT1000S). Tissue sections were stored in PBS with 0.02% sodium azide at 4° C. for further processing.
# (§1) CATCH labeling: For 100-micron sections labeling, the full CATCH reaction buffer contains: 5 μM AF647-picolyl azide, 150 μM CuSO4, 300 μM BTTP, 2.5 mM sodium ascorbate, and 10% DMSO in PBS. Tissue sections were incubated in click incubation buffer (without sodium ascorbate) overnight at RT. Tissues were then transferred to newly prepared incubation buffer and 100 mM freshly prepared sodium ascorbate was subsequently added to initiate the reaction. After 1 hour at RT in the dark with minor agitation, the reaction was quenched by addition of 4 mM EDTA in PBS (pH=8.0) and samples were washed 3×10 min with PBST. After removing click reaction cocktail, samples were stained by DAPI (1:3000 dilution in PBS from 10 μM stock) for 15 min at RT and would be ready for RI matching and imaging. They could also undergo further staining for cell type registration. For 500-micron sections, 300 μM CuSO4 and 600 μM BTTP were used for incubation and reaction. To achieve full labeling, tissues were incubated at 37° C. for 2 days, and underwent 4 rounds of 1 h click reaction at RT.
# [3] = system: monoacylglycerol lipase (MAGL); test: CATCH subcellular compartment imaging in hippocampus with synapsin and MAP2 immunostaining; type: in vivo, mouse
# Excerpt: Because MAGL is restricted in localization to presynaptic axonal terminals, whereas FAAH is expressed in neuronal soma, the inventors sought to determine whether CATCH could detect on-and off-target MJN110-yne binding across subcellular compartments. The inventors focused on the well-characterized CA3 to CA1 projection in the hippocampus as it allowed us to observe both axon terminals and soma in the same field of view.
# as §1
# Immunostaining: Samples were incubated with primary antibodies in PBST overnight at 4° C. unless otherwise noted. Samples were then washed with PBST, 3×30 min, RT and transferred to secondary antibodies diluted in PBST. Samples were incubated with secondary antibodies overnight, RT and washed with PBST 3×30 min. For antibody elution, imaged slides were dismounted, and tissues were washed by 8% PBS-SDS (pH=7.0) at 60° C. for 8 hours. Samples were then washed by PBST 3×10 min at RT to remove residual SDS and could undergo the next round of staining.
# Subcellular compartment intensity analysis: For MJN110-yne characterization, images were acquired at 5 μm from the tissue surface where the highest immunostaining signal can be observed. Different cellular compartments were identified by applying a threshold in immunostaining signal and mean drug labeling intensity was measured in the selected threshold region. Three random squares were drawn in nucleus in different cells and their average intensity was used as background. The recorded intensity value in soma or axonal terminal was then subtracted by the intensity in the nucleus for background adjustment. Data was then normalized to the average intensity of the control group as indicated in each figure legends.
# FAAH [4] = biological target: T1, FAAH; test: Gel-based CC-ABPP of whole brain lysates; type: in vivo; conditions: 20 mg/kg
# Method: (§2) For in gel ABPP analysis, after anesthetizing, mice were decapitated and target tissues were harvested and flash frozen in liquid N2 without perfusion or fixation. Each mouse hemisphere and liver were washed with ice cold PBS on ice (2×1 mL) to remove excessive blood. Tissues were homogenized in 1 mL PBS and sonicated for 10 min in ice cold water. Tissues were centrifuged (1000 g, 10 min, 4° C.) and supernatant was then centrifuged at high speed (100,000 g, 45 min, 4° C.). Supernatant was discarded and remaining pellets were gently washed with ice cold PBS (2×0.5 mL). Pellets were resuspended by gentle pipetting and protein concentrations were quantified by the Bio-Rad DC Protein Assay Kit. Proteomes were then diluted to […] for immediate use or aliquoted and stored at −80° C.
# (§3) In gel click chemistry ABPP assay: Click chemistry labeling of alkyne inhibitors was performed as previously reported (Niphakis et al., ACS Chem Neurosci 3, 418-426, 2012). Click reaction buffer was prepared by mixing CuSO4 (50 mM in H2O, 1.0 μL/reaction), TBTA (1.7 mM in 1:4 DMSO/t-BuOH, 3.0 μL/reaction), freshly prepared TCEP (50 mM in H2O, 1.0 μL/reaction) and 5-TAMRA azide (1.25 mM in DMSO, 1.0 μL/reaction). For every 50 μL tissue proteome ([…]), 6 μL click buffer was added. Reaction mixture was gently mixed and kept in a dark drawer for 1 hour at RT. […]
# MAGL = biological target: T2, MAGL (Mus musculus, UniProt O35678); test: Gel-based CC-ABPP of whole brain lysates; type: in vivo; conditions: 1 mg/kg
# T2 construct: from tissue; host or cells: mouse brain hemisphere, 100,000 g membrane pellet
# T2 sequence (O35678 1-303): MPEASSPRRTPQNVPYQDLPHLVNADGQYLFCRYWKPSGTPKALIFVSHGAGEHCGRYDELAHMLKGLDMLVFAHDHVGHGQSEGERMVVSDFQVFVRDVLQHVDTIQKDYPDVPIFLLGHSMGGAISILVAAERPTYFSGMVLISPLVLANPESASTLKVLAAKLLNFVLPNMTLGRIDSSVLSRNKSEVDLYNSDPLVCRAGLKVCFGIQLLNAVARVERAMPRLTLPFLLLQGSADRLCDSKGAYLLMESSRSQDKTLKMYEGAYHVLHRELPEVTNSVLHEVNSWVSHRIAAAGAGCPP
# Method: as §2, §3
"FAAH target binding by competitive CATCH (FAAH [2]; 0.01 mg/kg PF7845, then 1 mg/kg PF7845-yne)","FAAH inhibition by competitive CATCH (FAAH [2]; 0.05 mg/kg PF7845, then 1 mg/kg PF7845-yne)",Effect of pre-treatment on PF7845-yne-generated CATCH signals across the brain (FAAH [2]; pharmacological blocking experiment),Structure (SMILES),Clinical safety / toxicity [1],"FAAH inhibition by competitive CATCH, cortex vs hippocampus (FAAH [2]; 0.02 mg/kg PF7845, then PF7845-yne 1 mg/kg, 1 h, i.p.)",Duration of FAAH blockage to competitive probe binding (FAAH [2]; 24 hours after PF7845 administration),"Effect of pre-treatment on MJN110-yne binding in soma and axon terminals ([3]; PF7845 pre-treatment, then MJN110-yne, hippocampus)",Off-target engagement in gel-based CC-ABPP (FAAH [4]),Target engagement in gel-based CC-ABPP (MAGL),"Subcellular localisation of CATCH signal, low dose ([3]; 1 mg/kg, hippocampus CA1)",Overall fluorescence intensity in hippocampus ([3]; 20 mg/kg vs 1 mg/kg),"Subcellular localisation of CATCH signal, high dose ([3]; 20 mg/kg, hippocampus)",Specificity of CATCH signals ([3]; pretreatment with parent MJN110 and MAGL−/− mice),Clinical safety / toxicity ([1]; listed as BIA 10-2474)
no target binding was detected,full FAAH inhibition was achieved,completely abolished,O=C(Nc1cccnn1)N1CCC(=Cc2cccc(Oc3ccc(C(F)(F)F)cn3)c2)CC1 [PF7845],considered a safe FAAH inhibitor,Cortical PF7845-yne is fully blocked; also recorded: fully inhibited in the cortex but not in the hippocampus,sustained FAAH blockage to competitive probe binding,"significantly suppressed MJN110-yne binding in the soma, but not axon terminals",–,–,–,–,–,–,–
–,–,–,C#Cc1ccc(C(c2ccc(Cl)cc2)N2CCN(C(=O)ON3C(=O)CCC3=O)CC2)cc1 (stereo not drawn) [MJN110-yne],–,–,–,–,substantial off-target engagement of FAAH,selectively engaged MAGL,binding in presynaptic terminals; also recorded: restricted to synapsin positive axon terminals,overall higher fluorescence intensity,spread to the neuronal soma,confirmed the specificity,–
–,–,–,CN(C(=O)n1cnc(-c2ccc[n+]([O-])c2)c1)C1CCCCC1 [BIA-10-2474],Unanticipated toxicity,–,–,–,–,–,–,–,–,–,associated with clinical neurological toxicities

# — patent US20250189546A1, “METHODS FOR ANALYZING DRUG MOLECULES IN MAMMALIAN TISSUES” (The Scripps Research Institute, priority 2022, published 2025)
